From PMC9166766 (Experimental & Molecular Medicine, 2022)
No end group written: not given here.

How the values were obtained:
JNK1 = experiment: In vitro kinase assay, JNK1; type: biochemical; conditions: GST-tagged peptide, 1 h, 30 °C, 50 μM ATP
Procedure: (§1) We used the purified GST-tagged peptides for the in vitro kinase assays with activated recombinant kinases obtained from Proqinase GmbH (Freiburg, Germany). We performed the kinase assays in reaction buffer (50 mM HEPES-NaOH, pH 7.5, 3 mM MgCl2, 3 mM MnCl2, 3 μM sodium orthovanadate, 1 mM dithiothreitol, 50 μM unlabeled ATP, 5 μCi ^32P-γ-ATP) for 1 h at 30 °C. We stopped the reaction by adding 5× sample buffer and separated the proteins using SDS-PAGE. The gel was stained with Coomassie Brilliant Blue, dried, and developed on X-ray film.
(§2) The phosphorylated threonine of the immunoprecipitated peptide with HA antibody was detected with [PXpTP] antibody. b In vitro kinase assays using purified GST-tagged CABIN1 peptide and PKC downstream kinases. c In vitro kinase assays using purified GST-tagged peptides and kinases included in the MAPK family. d Immunoprecipitation assays using Flag-MAPKs and HA-CABIN1 in HEK293T cells. e, f In vitro kinase assays using p38α and substituted CABIN1 peptides. g Jurkat T cells expressing HA-mCherry-tagged CABIN1 peptide were treated with 10 μM p38α inhibitors for 16 h. Immunoprecipitation was performed with HA antibody and detected by western blotting. h Phosphorylated threonine and peptide-bound CNA of g were measured using ImageJ, and the ratio of phosphorylation and calcineurin binding to the CABIN1 peptide was calculated (n = 6). […]

p38α = experiment: In vitro kinase assay, p38α; type: biochemical; conditions: GST-tagged peptide, 1 h, 30 °C, 50 μM ATP
Procedure: as §1, §2

[1] = test system: CABIN1 peptide threonine 9 phosphorylation; experiment: Phosphorylation of threonine 9 of the expressed peptide in Jurkat T cells (PXpTP western blot, LC-MS/MS); type: cell-based; conditions: HA-mCherry-tagged peptide; western blot (PXpTP antibody) and LC-MS/MS
Text: We lysed the cells in IP150 buffer and immunoprecipitated Flag- and HA-tagged proteins with Anti-FLAG ® M2 Affinity Gel (Sigma–Aldrich) and Pierce™ Anti-HA Agarose (Thermo Fisher Scientific), respectively. The composition of the buffer and the subsequent process was described previously. To quantify the western blot results, we measured the band areas using ImageJ (https://imagej.nih.gov/ij/).
We purified HA-mCherry-tagged CABIN1-L-1-2 peptides expressed in Jurkat T cells by immunoprecipitating 4 mg of lysates with Pierce™ Anti-HA Agarose. We eluted the bead-bound proteins by competition with 1 mg/ml HA peptide. After separation by SDS-PAGE and staining with Coomassie Brilliant Blue, we analyzed the purified proteins by LC-MS/MS (ProteomeTech, Inc., Seoul, Korea).
(§3) RU response units, NC negative control.
The phosphorylated threonine of the immunoprecipitated peptide with HA antibody was detected with [PXpTP] antibody. b In vitro kinase assays using purified GST-tagged CABIN1 peptide and PKC downstream kinases. c In vitro kinase assays using purified GST-tagged peptides and kinases included in the MAPK family. d Immunoprecipitation assays using Flag-MAPKs and HA-CABIN1 in HEK293T cells. e, f In vitro kinase assays using p38α and substituted CABIN1 peptides. g Jurkat T cells expressing HA-mCherry-tagged CABIN1 peptide were treated with 10 μM p38α inhibitors for 16 h. Immunoprecipitation was performed with HA antibody and detected by western blotting. h Phosphorylated threonine and peptide-bound CNA of g were measured using ImageJ, and the ratio of phosphorylation and calcineurin binding to the CABIN1 peptide was calculated (n = 6). […] Statistical differences were determined using one-way ANOVA. *p < 0.05, **p < 0.01, ***p < 0.001, CBB Coomassie Brilliant Blue, NC negative control.

MKK4 = experiment: In vitro kinase assay, MKK4; type: biochemical; conditions: GST-tagged peptide, 1 h, 30 °C, 50 μM ATP
Procedure: as §1, §2

[2] = test system: CNAβ2 (calcineurin catalytic subunit); experiment: Mammalian two-hybrid assay (VP16 AD-CNAβ2 and GAL4 DBD-peptides, pG5-luc) in HEK293T cells; type: cell-based
Procedure: (§4) To measure the transcriptional activity of NFAT, we cotransfected Jurkat T cells with GST-tagged peptides and NFAT-luc by electroporation. After 24 h, we pretreated the cells with 0.5 μM FK506 for 1 h and then treated them with 40 nM PMA and 1 μM ionomycin for 8 h. For the mammalian two-hybrid assay, we cotransfected HEK293T cells with GAL4 DBD-tagged CABIN1, VIVIT, chimeric and substituted peptides, VP16 activation domain-tagged CNAβ2, and pG5-luc (luciferase reporter plasmid containing the GAL4-responsive promoter) for 24 h. We lysed the harvested cells with a luciferase assay lysis buffer (17 mM KH2PO4, 183 mM K2HPO4, pH 7.8, 0.2% [v/v] Triton X-100) and sonicated them briefly. We measured luciferase activity for each cell lysate using an Infinite M200 (Tecan, Männedorf, Switzerland). In addition, we confirmed the expression level of the transfected proteins by Western blotting.
A mammalian two-hybrid assay using these peptides was performed (bottom). The compositions of the transfected DNA are described in Supplementary Fig. 1a–c. All experiments were repeated three times and are presented as the mean ± standard deviation. […] SE short exposure, LE long exposure, NC negative control, WT wild-type.
NC negative control, WT wild-type.

[3] = test system: calcineurin (CNA) phosphatase activity; experiment: Calcineurin cellular activity assay in Jurkat T cells; type: cell-based; conditions: HA-mCherry-tagged peptides, PMA and ionomycin
Procedure: (§5) We measured calcineurin phosphatase activity in vitro using a calcineurin phosphatase assay kit (BML-AK804, Enzo Life Sciences, Farmingdale, NY, USA). We incubated GST or GST-tagged peptides with CNA for 30 min at room temperature and then followed the manufacturer’s instructions. To measure endogenous calcineurin phosphatase activity, we transiently transfected Jurkat T cells with CAG-HA-mCherry-peptides by electroporation. After 24 h, we pretreated the Jurkat T cells with FK506 for 1 h before activating them with PMA and ionomycin. Next, we washed the cells with TBS buffer (20 mM Tris, pH 7.2, 150 mM NaCl), resuspended them with lysis buffer from the calcineurin cellular activity assay kit (BML-AK816, Enzo Life Sciences), and kept them on ice for 30 min. We collected the lysate supernatant and removed free phosphate by gel filtration using the Desalting Column Resin included in the kit. Next, we followed the manufacturer’s instructions.
(§6) Jurkat T cells expressing only HA-mCherry were used as a negative control, and cells treated with FK506 were used as a positive control. d In vitro calcineurin phosphatase activity assays using purified GST-tagged peptides. Purified GST was used as a negative control. […] Statistical differences were determined using one-way ANOVA. *p < 0.05, NS nonsignificant, NC negative control.

[4] = Protein stability of HA-mCherry-VIVIT peptides in Jurkat T cells (western blot, FACS); type: cell-based; conditions: mCherry-tagged, vs VIVIT 15-mer
Procedure: We quantified the expression of mCherry-tagged VIVIT peptides using LSRII (SORP) (Becton Dickinson, Franklin Lakes, NJ, USA). We analyzed the results with FlowJo (Tree Star, Inc., Ashland, OR, USA).
Protein expression l evels of VIVIT peptides were detected with HA antibody in Jurkat T cells expressing HA-mCherry -VIVIT peptides. c mCherry expression intensity and distribution
cells/sample) d mRNA expression level of mCherry was measured by qRT -PCR. (n=4) Values shown are the mean ± standard deviation. SE, short exposure, LE, long expo sure, NC, negative

[5] = test system: calcineurin (CNA) phosphatase activity; experiment: In vitro calcineurin phosphatase activity assay; type: biochemical; conditions: purified GST-tagged peptides with CNA 30 min room temperature
Procedure: as §5, §6

ERK2 = experiment: In vitro kinase assay, ERK2; type: biochemical; conditions: GST-tagged peptide, 1 h, 30 °C, 50 μM ATP
Procedure: as §1, §2

[6] = test system: NFAT transcriptional activity; experiment: NFAT-luc luciferase reporter assay in Jurkat T cells; type: cell-based; conditions: GST-tagged peptides, 40 nM PMA and 1 μM ionomycin 8 h
Procedure: as §4, §3
(1 picture or pasted object on this page, not shown here)

[7] = test system: CNA (calcineurin catalytic subunit); experiment: In vitro peptide competition assay (GST-tagged peptide / His6-tagged CNA); type: binding; conditions: competitor CABIN1-L-1; molar ratio GST-peptide to competitor 1:50 to 1:400
[8] = parameters: method as in PMID 24319282; conditions: ref [17]; cited from earlier work
Text: FK506 and cyclosporin A, respectively cooperating with FKBP12 or cyclophilin, spatially hinder the substrates’ access to the active site of calcineurin, inhibiting its phosphatase activity[30],[31].

Compound | phosphorylation by JNK1 (JNK1) | phosphorylation by p38α (p38α) | threonine 9 phosphorylation in Jurkat T cells [1] | phosphorylation by MKK4 (MKK4) | interaction with / binding affinity to CNA (mammalian two-hybrid) ([2]; CNAβ2, 24 h, repeated three times) | interaction with CNA, effect of 1 μM ionomycin ([2]; with or without 1 μM ionomycin) | calcineurin phosphatase activity in cells [3] | stability under physiological conditions vs full-length VIVIT peptide (15-mer) [4] | calcineurin phosphatase activity in vitro [5] | phosphorylation by ERK2 (ERK2) | NFAT luciferase activity ([6]; n = 3) | inhibitory effect on NFAT luciferase relative to VIVIT peptide ([6]; n = 3, vs VIVIT peptide) | interference with interaction between GST-tagged VIVIT peptide and His6-tagged CNA [7] | side effects [8]
CABIN1-L-1-2: 10 amino acids from proline 2146 to proline 2155 of full-length CABIN1; expressed GST-, GAL4 DBD- or HA-mCherry-tagged (PEITVTPPTP; also: expressed GST-, GAL4 DBD- or HA-mCherry-tagged, end not given here) | phosphorylated | phosphorylated | observed threonine 9 phosphorylation | directly phosphorylate | still bound to CNA | did not affect the interaction | did not | more stable than the full-length VIVIT peptide (15-mer) | did not reduce the phosphatase activity of CNA in vitro | phosphorylated | repressed luciferase activity compared with the negative control | approximately four times stronger than that of the VIVIT peptide | dose-dependently interfered with the interaction | 
C=CC[C@@H]1/C=C(\C)C[C@H](C)C[C@H](OC)[C@H]2O[C@@](O)(C(=O)C(=O)N3CCCC[C@H]3C(=O)O[C@H](/C(C)=C/[C@@H]3CC[C@@H](O)[C@H](OC)C3)[C@H](C)[C@@H](O)CC1=O)[C@H](C)C[C@@H]2OC [FK506, reference compound] |  |  |  |  |  |  | decreased the phosphatase activity of CNA |  |  |  |  |  |  | nephrotoxicity, fibrogenesis, neurotoxicity, and diabetes
